Laboratory results from PMC9386376, “Discovery of spirooxindole-derived small-molecule compounds as novel HDAC/MDM2 dual inhibitors and investigation of their anticancer activity” (Frontiers in Oncology, 2022).
Entries after “also recorded” stand apart in the source; their conditions may differ.

Assays:
[1] = molecular target: T1, HDAC8 (Homo sapiens, UniProt Q9BY41); assay: HDAC isoform selectivity, HDAC8; assay type: biochemical; conditions: HDAC subtype panel
T1 sequence (Q9BY41 1-377): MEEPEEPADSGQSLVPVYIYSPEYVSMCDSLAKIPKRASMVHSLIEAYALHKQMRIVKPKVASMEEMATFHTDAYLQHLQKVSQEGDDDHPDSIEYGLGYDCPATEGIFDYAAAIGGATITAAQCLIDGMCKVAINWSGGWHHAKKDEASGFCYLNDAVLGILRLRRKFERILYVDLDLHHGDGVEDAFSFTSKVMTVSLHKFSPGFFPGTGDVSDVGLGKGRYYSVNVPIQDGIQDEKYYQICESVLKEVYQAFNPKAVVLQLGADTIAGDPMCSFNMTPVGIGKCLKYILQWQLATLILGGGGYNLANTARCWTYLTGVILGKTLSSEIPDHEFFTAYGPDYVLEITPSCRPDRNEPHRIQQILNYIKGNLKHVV

[2] = molecular target: HDAC1 (Homo sapiens, UniProt Q13547); assay: HTRF enzyme inhibition assay, HDAC1
Chain of HDAC1 (Q13547 whole entry): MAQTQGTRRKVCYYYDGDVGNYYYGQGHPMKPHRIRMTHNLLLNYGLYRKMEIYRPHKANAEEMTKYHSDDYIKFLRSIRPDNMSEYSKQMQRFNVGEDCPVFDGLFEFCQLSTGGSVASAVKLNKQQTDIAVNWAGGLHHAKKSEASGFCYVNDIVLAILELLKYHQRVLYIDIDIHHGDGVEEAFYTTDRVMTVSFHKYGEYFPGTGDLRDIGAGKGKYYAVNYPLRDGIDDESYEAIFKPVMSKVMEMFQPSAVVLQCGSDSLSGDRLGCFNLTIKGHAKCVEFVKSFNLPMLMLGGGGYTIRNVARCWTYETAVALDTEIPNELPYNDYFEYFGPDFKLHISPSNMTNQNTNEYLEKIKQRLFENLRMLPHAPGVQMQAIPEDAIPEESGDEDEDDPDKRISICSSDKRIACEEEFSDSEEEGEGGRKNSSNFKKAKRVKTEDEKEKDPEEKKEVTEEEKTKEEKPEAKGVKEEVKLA
Method: The data obtained were processed by the ratio method, and the inhibition rates of MDM2 and HDAC1 were calculated. The detailed experimental procedures are according to the manufacturer’s protocols.

[3] = molecular target: T2, GST-tagged MDM2 (Homo sapiens, UniProt Q00987); assay: HTRF enzyme inhibition assay, MDM2; assay type: biochemical
T2 construct: purchased Cisbio Co. Ltd
T2 sequence (Q00987 whole entry): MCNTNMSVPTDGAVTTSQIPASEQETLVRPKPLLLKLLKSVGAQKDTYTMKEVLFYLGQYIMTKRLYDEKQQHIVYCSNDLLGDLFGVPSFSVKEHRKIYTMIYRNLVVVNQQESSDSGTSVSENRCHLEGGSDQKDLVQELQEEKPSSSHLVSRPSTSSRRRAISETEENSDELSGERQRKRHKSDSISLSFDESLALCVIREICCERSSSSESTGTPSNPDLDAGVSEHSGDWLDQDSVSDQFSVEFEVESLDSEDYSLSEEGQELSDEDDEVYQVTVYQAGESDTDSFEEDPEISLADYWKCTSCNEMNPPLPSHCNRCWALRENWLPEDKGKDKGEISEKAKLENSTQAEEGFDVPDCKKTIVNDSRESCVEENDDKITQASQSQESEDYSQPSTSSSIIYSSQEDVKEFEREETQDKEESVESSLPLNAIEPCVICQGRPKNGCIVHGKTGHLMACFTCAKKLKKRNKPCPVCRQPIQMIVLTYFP

[4] = test system: MCF-7 cells; assay: MTT antiproliferative assay, MCF-7; conditions: Homo sapiens, MCF7, read-out: IC50 MCF-7
Method: (§1) The cytotoxicity assay was performed with MTT method as previously described ([73], [88], [89]).

[5] = molecular target: HDAC9 (Homo sapiens, UniProt Q9UKV0); assay: HDAC isoform selectivity, HDAC9; assay type: biochemical; conditions: HDAC subtype panel
Chain of HDAC9 (Q9UKV0 whole entry, canonical isoform): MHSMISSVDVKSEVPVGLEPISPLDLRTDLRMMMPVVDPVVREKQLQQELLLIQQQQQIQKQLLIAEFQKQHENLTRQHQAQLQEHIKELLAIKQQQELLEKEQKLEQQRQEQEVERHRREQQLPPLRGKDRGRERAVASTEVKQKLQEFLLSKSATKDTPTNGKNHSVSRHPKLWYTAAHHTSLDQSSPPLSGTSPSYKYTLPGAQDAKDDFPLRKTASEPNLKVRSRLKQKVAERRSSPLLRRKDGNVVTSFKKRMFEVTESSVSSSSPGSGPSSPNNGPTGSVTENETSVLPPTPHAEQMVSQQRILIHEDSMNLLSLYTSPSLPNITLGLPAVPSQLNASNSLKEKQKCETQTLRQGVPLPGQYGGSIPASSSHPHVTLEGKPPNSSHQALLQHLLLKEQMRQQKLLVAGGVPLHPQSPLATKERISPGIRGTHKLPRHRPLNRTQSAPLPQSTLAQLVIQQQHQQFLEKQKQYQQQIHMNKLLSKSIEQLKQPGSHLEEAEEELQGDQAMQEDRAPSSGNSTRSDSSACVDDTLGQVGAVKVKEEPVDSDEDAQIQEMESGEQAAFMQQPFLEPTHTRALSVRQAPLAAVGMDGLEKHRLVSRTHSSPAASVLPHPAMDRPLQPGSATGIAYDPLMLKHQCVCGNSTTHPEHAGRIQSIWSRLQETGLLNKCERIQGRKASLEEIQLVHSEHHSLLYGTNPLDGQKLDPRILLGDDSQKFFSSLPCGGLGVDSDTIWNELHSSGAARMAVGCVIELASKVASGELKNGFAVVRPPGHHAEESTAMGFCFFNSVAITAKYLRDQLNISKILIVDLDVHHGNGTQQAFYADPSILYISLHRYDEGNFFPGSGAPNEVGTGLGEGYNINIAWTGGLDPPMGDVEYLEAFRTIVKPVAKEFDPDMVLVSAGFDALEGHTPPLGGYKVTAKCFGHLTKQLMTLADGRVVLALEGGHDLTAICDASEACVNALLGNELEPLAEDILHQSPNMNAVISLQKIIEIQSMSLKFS

[6] = molecular target: T2, GST-tagged MDM2; assay: HTRF enzyme inhibition assay, MDM2; assay type: biochemical; conditions: compound at 1 μM
[7] = test system: HCT116 cells; assay: MTT antiproliferative assay, HCT116; conditions: Homo sapiens, HCT-116, read-out: IC50 HCT116
Method: as §1

[8] = test system: MCF-7 cells; assay: TUNEL staining apoptosis assay; assay type: cell-based, human; conditions: MCF-7, 0.5 μM, 24 h, compared with SAHA and Nutlin-3
Method: It was reported that the inactivation of HDAC and/or MDM2 could increase the percentage of apoptosis cells ([85]–[87]). Therefore, three methods were applied to assess the effect of MDM2-HDAC dual inhibitor 11b on the apoptosis of MCF-7 cells. […] Subsequently, the annexin V-FITC/propidium iodide (PI) double staining method was carried out to quantitatively detect the effect of compound 11b on cell apoptosis (Figure 9B).
TUNEL assay was performed using in situ apoptosis detection kit (Promega, USA), according to the manufacturer’s protocols. […] After 24 h incubation, cells were plated onto the slides, fixed in 4% paraformaldehyde in PBS for 25 min, and then washed with PBS twice. After that, the cells were incubated in TUNEL reaction mixture at 37°C for 60 min. Then nuclei were counterstained with DAPI, and cells were checked under an immunofluorescent confocal microscopy (Olympus FV1000).

[9] = test system: MDM2, p53 in MCF-7 cells; assay: Western blot, MDM2 and p53 protein level; assay type: cell-based, human; conditions: MCF-7, 24 h incubation
Method: The cells were collected and washed with cold PBS twice, then added the protease and phosphatase inhibitors contained lysis buffer. Total cell lysates were prepared in lysis RIPA buffer (Invitrogen, CA, USA) on ice for 30 min, followed by centrifugation at 12000 rpm for 10 min at 4°C. After collecting supernatant, protein concentration was determined by a BCA protein assay. The total proteins were loaded into the 10%-15% SDS-PAGE gel and separated by sodium dodecyl sulfate polyacrylamide gel electrophoresis (PAGE). After electrophoresis, the protein was transferred to the PVDF membranes and rinsed three times in PBST buffer for 10 min each time, then sealed with 5% BSA Buffer for 1h. The membranes were incubated at 4°C for 24 h with primary antibodies and washed with TBST three times. Then incubated at room temperature for 2 h with secondary antibodies (1:10,000). The incubated PVDF membranes were taken out and rinsed with TBST three times. The protein bands were visualized through enhanced chemiluminescence (ECL) WB substrate (Millipore, MA, USA) and analyzed by ChemiScope. The antibodies including p53, MDM2, H4, and GAPDH were purchased from Abcam (Cambridge, MA, USA).

[10] = molecular target: T3, HDAC7 (Homo sapiens, UniProt Q8WUI4); assay: HDAC isoform selectivity, HDAC7; assay type: biochemical; conditions: HDAC subtype panel
T3 sequence (Q8WUI4 1-952): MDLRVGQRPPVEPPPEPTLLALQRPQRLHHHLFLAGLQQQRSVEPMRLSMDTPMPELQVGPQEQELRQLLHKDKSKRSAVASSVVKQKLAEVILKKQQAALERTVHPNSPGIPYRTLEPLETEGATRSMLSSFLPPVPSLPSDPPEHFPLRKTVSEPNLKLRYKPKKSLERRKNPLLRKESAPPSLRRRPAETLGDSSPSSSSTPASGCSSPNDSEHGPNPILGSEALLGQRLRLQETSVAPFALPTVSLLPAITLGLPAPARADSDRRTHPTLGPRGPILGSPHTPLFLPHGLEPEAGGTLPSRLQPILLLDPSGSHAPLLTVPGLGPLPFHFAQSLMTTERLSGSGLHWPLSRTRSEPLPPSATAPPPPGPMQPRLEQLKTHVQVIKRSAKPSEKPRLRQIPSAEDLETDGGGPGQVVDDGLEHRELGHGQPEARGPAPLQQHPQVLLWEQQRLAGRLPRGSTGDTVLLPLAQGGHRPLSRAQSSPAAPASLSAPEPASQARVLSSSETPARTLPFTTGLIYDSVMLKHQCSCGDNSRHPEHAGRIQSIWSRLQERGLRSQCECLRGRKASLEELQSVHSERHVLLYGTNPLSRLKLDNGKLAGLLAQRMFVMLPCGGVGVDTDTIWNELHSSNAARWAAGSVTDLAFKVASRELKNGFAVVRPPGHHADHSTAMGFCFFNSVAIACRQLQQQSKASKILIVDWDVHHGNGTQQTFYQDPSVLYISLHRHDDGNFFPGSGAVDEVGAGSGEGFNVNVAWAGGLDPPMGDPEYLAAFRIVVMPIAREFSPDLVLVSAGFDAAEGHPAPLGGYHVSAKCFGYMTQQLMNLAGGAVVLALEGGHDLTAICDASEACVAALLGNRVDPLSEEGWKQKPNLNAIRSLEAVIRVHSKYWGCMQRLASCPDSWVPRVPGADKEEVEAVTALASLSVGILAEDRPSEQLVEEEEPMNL

SMILES: O=C(CCCCCCC(=O)N1CCC(C(=O)Nc2ccc([C@@H]3[C@H]4CSCN4[C@]4(C(=O)Nc5cc(Cl)ccc54)[C@H]3C(=O)c3ccccc3)cc2)CC1)NO [compound 11b, N-(4-((3R,6'S,7'R,7a'S)-6'-benzoyl-6-chloro-2-oxo-1',6',7',7a'-tetrahydro-3'H-spiro[indoline-3,5'-pyrrolo[1,2-c]thiazol]-7'-yl)phenyl)-1-(8-(hydroxyamino)-8-oxooctanoyl)piperidine-4-carboxamide]
- IC50 [1]: 313 ± 23 nM
- IC50 [2]: 58 ± 5 nM
- inhibition at 1 µM ([2]; read-out: % enzyme inhibition HDAC): 79%
- IC50 [3]: 339 ± 68 nM
- IC50 [4]: 1370 ± 450 nM
- IC50 [5]: > 10000 nM
- inhibition at 1 µM [6]: 68%
- IC50 [7]: 2540 ± 1070 nM
- apoptotic positive cells by TUNEL staining [8]: significantly higher number of apoptotic positive cells
- protein level of MDM2 and p53 (western blot) [9]: up-regulating the expression of p53; also recorded: increased the expression of p53; also recorded: dose-dependently increased the protein level of MDM2 as well as p53
- IC50 [10]: > 10000 nM
